Patent US8304434B2, “Substituted aryl sulfone derivatives as calcium channel blockers” (Merck Sharp & Dohme Corp., priority 2007, dated 2012)

These compounds were tested against T1, Human Cav2.2 channels (Homo sapiens, UniProt Q00975) (assay: Fluorescent assay for Cav2.2 channels using potassium depolarization to initiate channel opening (Assay Example 1)). Settings: Assay Example 1, HEK293 cells expressing human Cav2.2; pre-incubation potassium concentration not stated.
T1 construct: expressed in transfected cells; also expresses Kir2.3)
T1 sequence (Q00975 whole entry): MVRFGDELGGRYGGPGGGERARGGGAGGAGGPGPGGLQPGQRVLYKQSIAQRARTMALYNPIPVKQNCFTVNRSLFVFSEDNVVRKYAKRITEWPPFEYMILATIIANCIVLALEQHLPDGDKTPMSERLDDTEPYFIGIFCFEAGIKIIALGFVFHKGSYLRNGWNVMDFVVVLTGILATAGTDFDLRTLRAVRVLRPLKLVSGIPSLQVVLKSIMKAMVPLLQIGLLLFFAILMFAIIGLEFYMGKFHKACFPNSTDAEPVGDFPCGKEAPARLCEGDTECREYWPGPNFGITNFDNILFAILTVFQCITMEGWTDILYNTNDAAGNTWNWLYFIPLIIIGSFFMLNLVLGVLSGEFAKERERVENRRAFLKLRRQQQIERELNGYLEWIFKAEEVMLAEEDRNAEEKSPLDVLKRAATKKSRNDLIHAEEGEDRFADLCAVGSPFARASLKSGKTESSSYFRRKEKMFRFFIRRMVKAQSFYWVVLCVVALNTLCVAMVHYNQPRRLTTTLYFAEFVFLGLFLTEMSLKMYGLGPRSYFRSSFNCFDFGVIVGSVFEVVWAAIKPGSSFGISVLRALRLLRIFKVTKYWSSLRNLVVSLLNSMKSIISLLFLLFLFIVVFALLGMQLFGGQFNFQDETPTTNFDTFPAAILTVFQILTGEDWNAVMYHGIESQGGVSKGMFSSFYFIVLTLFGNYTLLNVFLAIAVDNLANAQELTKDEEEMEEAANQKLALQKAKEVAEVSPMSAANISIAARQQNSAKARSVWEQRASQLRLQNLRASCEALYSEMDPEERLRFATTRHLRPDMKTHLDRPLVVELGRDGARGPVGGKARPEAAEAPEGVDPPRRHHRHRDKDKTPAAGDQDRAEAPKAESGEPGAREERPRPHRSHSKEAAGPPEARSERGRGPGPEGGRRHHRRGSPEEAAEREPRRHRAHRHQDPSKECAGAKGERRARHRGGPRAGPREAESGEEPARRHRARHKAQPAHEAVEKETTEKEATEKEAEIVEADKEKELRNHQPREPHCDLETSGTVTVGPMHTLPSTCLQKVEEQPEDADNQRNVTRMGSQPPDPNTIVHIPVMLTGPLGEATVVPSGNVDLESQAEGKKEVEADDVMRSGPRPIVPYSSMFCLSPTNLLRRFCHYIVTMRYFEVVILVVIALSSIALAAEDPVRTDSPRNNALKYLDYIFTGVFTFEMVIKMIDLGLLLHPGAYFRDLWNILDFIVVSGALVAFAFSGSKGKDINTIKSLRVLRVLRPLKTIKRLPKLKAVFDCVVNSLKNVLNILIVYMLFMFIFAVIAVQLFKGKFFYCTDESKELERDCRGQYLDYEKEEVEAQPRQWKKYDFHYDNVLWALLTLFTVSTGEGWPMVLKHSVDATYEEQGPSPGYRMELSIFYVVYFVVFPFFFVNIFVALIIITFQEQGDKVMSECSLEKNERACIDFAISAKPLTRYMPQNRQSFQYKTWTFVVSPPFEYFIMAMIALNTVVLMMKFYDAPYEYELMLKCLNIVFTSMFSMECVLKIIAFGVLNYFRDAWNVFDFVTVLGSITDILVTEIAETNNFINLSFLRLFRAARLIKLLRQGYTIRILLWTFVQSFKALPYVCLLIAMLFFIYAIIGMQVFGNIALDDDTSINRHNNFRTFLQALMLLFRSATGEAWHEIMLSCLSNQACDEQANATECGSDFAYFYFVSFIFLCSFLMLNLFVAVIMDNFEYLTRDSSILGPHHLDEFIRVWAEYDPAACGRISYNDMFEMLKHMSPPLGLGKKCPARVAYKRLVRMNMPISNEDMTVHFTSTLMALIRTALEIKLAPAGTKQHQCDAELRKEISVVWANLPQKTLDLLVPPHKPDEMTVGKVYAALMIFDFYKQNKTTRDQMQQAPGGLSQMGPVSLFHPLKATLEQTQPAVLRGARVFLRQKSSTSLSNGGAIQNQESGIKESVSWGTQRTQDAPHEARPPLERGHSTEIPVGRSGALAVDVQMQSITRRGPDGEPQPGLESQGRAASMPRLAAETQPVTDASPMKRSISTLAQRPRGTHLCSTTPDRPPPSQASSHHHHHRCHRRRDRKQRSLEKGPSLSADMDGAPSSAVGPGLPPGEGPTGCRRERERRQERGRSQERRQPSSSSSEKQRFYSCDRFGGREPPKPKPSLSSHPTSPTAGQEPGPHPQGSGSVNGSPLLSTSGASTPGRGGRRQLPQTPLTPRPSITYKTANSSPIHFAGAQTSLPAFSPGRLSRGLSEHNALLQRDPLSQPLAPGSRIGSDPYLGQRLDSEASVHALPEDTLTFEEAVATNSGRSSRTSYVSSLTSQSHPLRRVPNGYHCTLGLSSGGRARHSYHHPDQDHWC
Format: cell-based
From the text: Human Cav2.2 channels were stably expressed in HEK293 cells along with alpha2-delta and beta subunits of voltage-gated calcium channels. An inwardly rectifying potassium channel (Kir2.3) was also expressed in these cells to allow more precise control of the cell membrane potential by extracellular potassium concentration. At low bath potassium concentration, the membrane potential is relatively negative, and is depolarized as the bath potassium concentration is raised. In this way, the bath potassium concentration can be used to regulate the voltage-dependent conformations of the channels. Compounds are incubated with cells in the presence of low (4 mM) potassium or elevated (12, 25 or 30 mM) potassium to determine the affinity for compound block of resting (closed) channels at 4 mM potassium or affinity for block of open and inactivated channels at 12, 25 or 30 mM potassium. After the incubation period, Cav2.2 channel opening is triggered by addition of higher concentration of potassium (70 mM final concentration) to further depolarize the cell. The degree of state-dependent block can be estimated from the inhibitory potency of compounds after incubation in different potassium concentrations.
Calcium influx through Cav2.2 channels is determined using a calcium-sensitive fluorescent dye in combination with a fluorescent plate reader. Fluorescent changes were measured with either a VIPR (Aurora Instruments) or FLIPR (Molecular Devices) plate reader.
• 1. Seed cells in Poly-D-Lysine Coated 96- or 384-well plate and keep in a 37° C.-10% CO2 incubator overnight • 2. Remove media^1, wash cells with 0.2 ml (96-well plate) or 0.05 ml (384-well plate) Dulbecco's Phosphate Buffered Saline (D-PBS) with calcium & magnesium (Invitrogen; 14040) • 3. Add 0.1 ml (96-well plate) or 0.05 ml (384-well plate) of 4 μM fluo-4 (Molecular Probes; F-14202) and 0.02% Pluronic acid (Molecular Probes; P-3000) prepared in D-PBS with calcium & magnesium (Invitrogen; 14040) supplemented with 10 mM Glucose & 10 mM Hepes/NaOH; pH 7.4 • 4. Incubate in the dark at 25° C. for 60-70 min • 5. Remove dye^2, wash cells with 0.1 ml (96-well plate) or 0.06 ml (384-well plate) of 4, 12, 25, or 30 mM Potassium Pre-polarization Buffer. (PPB) • 6. Add 0.1 ml (96-well plate) or 0.03 ml (384-well plate) of 4, 12, 25, 30 mM PPB, with or without test compound • 7. Incubate in the dark at 25° C. for 30 min • 8. Read cell plate on VIPR instrument, Excitation=480 nm, Emission=535 nm • 9. With VIPR continuously reading, add 0.1 ml (96-well plate) or 0.03 ml (384-well plate) of Depolarization Buffer, which is 2× the final assay concentration, to the cell plate.

Question: With `CC(C)(C1CCN(C(=O)c2nc3ccc(F)cc3[nH]2)CC1)S(=O)(=O)c1cccc(C(F)(F)F)c1` as the compound, how does the IC50 read?
Answer: The IC50 was 790 nM.

Question: For `CC(C)(C1CCN(C(=O)c2ccc(C(F)(F)F)cc2S(C)(=O)=O)CC1)S(=O)(=O)c1cccc(C(F)(F)F)c1`, which IC50 is on record?
Answer: The IC50 was 150 nM.

Question: With `CC(C)(C1CCN(C(=O)c2cccc(F)c2)CC1)S(=O)(=O)c1cccc(C(F)(F)F)c1` as the compound, how does the IC50 read?
Answer: The IC50 was 830 nM.

Question: How did the IC50 turn out when `CC(C)(C1CCN(C(=O)c2c[nH]c(-c3ccccc3)n2)CC1)S(=O)(=O)c1cccc(C(F)(F)F)c1` was run?
Answer: The IC50 was 1390 nM.

Question: How did the IC50 turn out when `CC(C)(C)c1ccc(C(=O)N2CCC(C(C)(C)S(=O)(=O)c3cccc(C(F)(F)F)c3)CC2)cc1` was run?
Answer: Its IC50 is 490 nM.

Question: For `CC(C)(C1CCN(C(=O)[C@@H](N)Cc2ccccc2)CC1)S(=O)(=O)c1cccc(C(F)(F)F)c1`, which IC50 is on record?
Answer: Its IC50 is 490 nM.

Question: For `CC(C)(C1CCN(C(=O)c2cccc3nccnc23)CC1)S(=O)(=O)c1cccc(C(F)(F)F)c1`, which IC50 is on record?
Answer: The IC50 was 1400 nM.

Question: How did the IC50 turn out when `CC(C)(C1CCN(C(=O)C2(N)CCC2)CC1)S(=O)(=O)c1cccc(C(F)(F)F)c1` was run?
Answer: The IC50 was 1170 nM.

Question: Which IC50 does the source give for `CC(C)(C1CCN(C(=O)C[C@@H](NS(C)(=O)=O)c2ccccc2)CC1)S(=O)(=O)c1cccc(C(F)(F)F)c1` here?
Answer: Its IC50 is 360 nM.

Question: Which IC50 does the source give for `CC(C)(C1CCN(C(=O)[C@H](O)Cc2ccccc2)CC1)S(=O)(=O)c1cccc(C(F)(F)F)c1` here?
Answer: Its IC50 is 510 nM.
